In patent US7132261B2, “Orphan receptor” (Karo Bio AB, priority 1995, dated 2006):
pKd: −log10 of the molar value. Where two headings read alike, the source gives them in different places.

Assays:
clone 29 protein (rERβ) [1] = target: T1, clone 29 protein (rERβ) (Rattus norvegicus, UniProt Q62986); experiment: Ligand competition studies against [3H]E2, clone 29 protein in reticulocyte lysate; format: binding; design: The open reading frame encodes a protein of 485 amino acid residues (counted from the first methionine); details: for efficient competition with [3H]E2 for binding: 5 nM [3H]E2, highest concentrations used (1000 fold excess); for times less effective as competitor (compared with unlabelled E2): 5 nM [3H]E2, 16 h at 8° C.
From the text: Bound and unbound steroids were separated with a dextran-coated charcoal assay (Ekman, P., Barrack, E. R., Greene, G. L., Jensen, E. V., & Walsh, P. C. (1983) J. Clin. Endocrinol Metab. 57, 166–176).

clone 29 protein (rERβ) [2] = target: T1, clone 29 protein (rERβ); experiment: Transactivation analysis in CHO-cells (ERE-ALP reporter, clone 29 expression vector); format: cell-based; design: The open reading frame encodes a protein of 485 amino acid residues (counted from the first methionine); expressed in transfected cells; host or cells: CHO-K1 cells transiently transfected with pCMV29 and pERE-ALP; details: for stimulation of transcriptional activity of clone 29 protein: highest concentration tested 1000 nM
From the text: The expression vector pCMV29 was constructed by inserting the 2.6 kb clone 29 fragment in the EcoRI site of the expression vector pCMV5 (Andersson, S., Davis, D.L., Dahlbäck, H., Jörnvall, H., & Russell, D.W. (1989) J. Biol. Chem. 264, 8222–8229). The pERE-ALP reporter construct contains a secreted form of the plancental alkaline phosphatase gene (Berger, J., Hauber, J., Hauber, R., Geiger, R., & Cullen, B.R. (1988) Gene 66 1–10) and the MMTV-LTR in which the glucocorticoid response elements were replaced by the vitellogenin promoter estrogen response element (ERE). The vector pCMV29 containing the clone 29 fragment was deposited with NCIMB, Ferguson Building, Craibstone Estate, Bucksburn, Aberdeen, Scotland, UK AB21 9YA in accordance with the Budapest Treaty on the International Recognition of the Deposit of Microorganisms for the Purposes of Patent Procedure on 26 May 2006, under accession No. NCIMB 41404. The deposit was named “Escherichia coli DH5 prat ER (CmV29)”. All restrictions on the availability to the public of the material deposited will be irrevocably removed upon the granting of a patent.
CHO-K1 cells were seeded in 12-well plates at approximately 1.7×10^5 cells per well in phenol-red free Ham F12 medium with 5% FCS (dextran-coated charcoal treated) and 2 mM Lglutamine. After 24 h the cells were transfected with 250 ng pERE-ALP vector and 50 ng pCMV29 using lipofectamine (Gibco) according to the manufacturer's instructions. After five hours of incubation the cells were washed and refed with 0.5 ml phenol-red free Coon's F-12 medium containing 5% serum substitute (SRC 3000, Tissue Culture Services Ltd., Botolph Claydon, Buckingham, UK) 2 mM Lglutamine and 50 μg/ml gentamicin plus hormones as indicated. After 48 h the medium was assayed for alkaline phosphatase (ALP) activity by a chemiluminescence assay. A 10 μl aliquot of the cell culture medium was mixed with 200 μl assay buffer (10 mM diethanolamine pH 10.0 1 mM MgCl2 and 0.5 mM CSPD (Tropix Inc. Boston, USA) ) and incubated for 20 min at 37° C. before measurement in a microplate luminometer (Luminoskan; Labsystems, Finland) with integral measurement for 1 second. The ALP activity of ERE-reporter alone was set at 1.
To investigate the transcriptional regulatory properties of clone 29 protein, we performed co-transfection experiments in which CHO cells were transfected with a clone 29 protein expression vector and/or an estrogen-responsive reporter gene construct. […] CHO-cells were transiently transfected with the ERE-reporter plasmid and the clone 29 protein expression plasmid. […] Alkaline phosphatase activity (ALP) was measured as described and the activity in the absence of ligand (control) was set at 1.

rERβ = target: T2, rERβ (Rattus norvegicus, UniProt Q62986); experiment: Equilibrium binding saturation experiments with [125I]-E2, rERβ
T2 construct: Clone 29 protein consists of 485 amino acid residues; made in house; host or cells: rabbit reticulocyte lysate in vitro translation (Promega)
From the text: Equilibrium binding saturation experiments (Kd-determinations)

T1 sequence (Q62986 46-530): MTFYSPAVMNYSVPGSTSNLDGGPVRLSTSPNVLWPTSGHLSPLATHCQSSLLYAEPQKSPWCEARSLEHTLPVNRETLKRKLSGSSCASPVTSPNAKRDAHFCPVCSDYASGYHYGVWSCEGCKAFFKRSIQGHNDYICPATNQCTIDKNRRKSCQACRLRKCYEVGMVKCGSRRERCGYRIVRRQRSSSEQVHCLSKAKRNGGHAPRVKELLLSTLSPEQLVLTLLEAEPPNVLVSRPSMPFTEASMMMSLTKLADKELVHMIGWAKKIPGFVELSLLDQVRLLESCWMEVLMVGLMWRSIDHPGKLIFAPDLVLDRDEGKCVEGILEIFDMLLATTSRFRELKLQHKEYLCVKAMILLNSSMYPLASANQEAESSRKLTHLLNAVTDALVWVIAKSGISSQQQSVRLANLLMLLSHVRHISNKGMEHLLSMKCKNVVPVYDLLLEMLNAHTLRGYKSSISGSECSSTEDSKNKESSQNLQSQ
T2 sequence (Q62986 46-530): as above

Structure (SMILES)	efficient competition with [3H]E2 for binding (clone 29 protein (rERβ) [1])	stimulation of transcriptional activity of clone 29 protein (clone 29 protein (rERβ) [2])	times less effective as competitor (compared with unlabelled E2) (clone 29 protein (rERβ) [1]) [times]	also measured
C[C@]12C[C@H](O)[C@H]3[C@@H](CCC4=CC(=O)CC[C@@]43C)[C@@H]1CC[C@@H]2C(=O)CO [corticosterone]	Neither testosterone, progesterone, corticosterone nor 5α-androstane-3α,17β-diol were efficient competitors	–	–	–
CCCCN(C)C(=O)CCCCCCCCCC[C@@H]1Cc2cc(O)ccc2[C@H]2CC[C@]3(C)[C@@H](O)CC[C@H]3[C@H]12 [ICI-1624384]	–	–	–	suppression of the constitutive transcriptional activity of clone 29 protein (clone 29 protein (rERβ) [2]; no E2 added, not shown): could be suppressed
C[C@]12CC[C@H]3[C@@H](CCC4=CC(=O)CC[C@@]43C)[C@@H]1CC[C@@H]2O [testosterone]	Neither testosterone, progesterone, corticosterone nor 5α-androstane-3α,17β-diol were efficient competitors	could not stimulate transcriptional activity	–	–
CC(=O)[C@H]1CC[C@H]2[C@@H]3CCC4=CC(=O)CC[C@]4(C)[C@H]3CC[C@]12C [progesterone]	Neither testosterone, progesterone, corticosterone nor 5α-androstane-3α,17β-diol were efficient competitors	could not stimulate transcriptional activity	–	–
C[C@]12CC[C@@H](O)C[C@@H]1CC[C@@H]1[C@@H]2CC[C@]2(C)[C@@H](O)CC[C@@H]12 [5α-androstane-3α,17β-diol]	Neither testosterone, progesterone, corticosterone nor 5α-androstane-3α,17β-diol were efficient competitors	could not stimulate transcriptional activity	150	–
C[C@]12CC[C@@H]3c4ccc(O)cc4CC[C@H]3[C@@H]1C[C@@H](I)[C@@H]2O [[^125I]-E2, 16α[^125I]-17β-estradiol]	–	–	–	pKd (rERβ; read-out: Kd (Hill-plot)): 9.62; pKd (rERβ; read-out: Kd (Scatchard-plot)): 9.38
CC/C(=C(/CC)c1ccc(O)cc1)c1ccc(O)cc1 [diethylstilbestrol]	–	–	5	–
C[C@]12CC[C@H](O)C[C@@H]1CC[C@@H]1[C@@H]2CC[C@]2(C)[C@@H](O)CC[C@@H]12 [5α-androstane-3β,17β-diol]	–	could stimulate transcriptional activity, albeit at higher concentrations	–	–
C[C@]12CC[C@@H]3c4ccc(O)cc4CC[C@H]3[C@@H]1C[C@@H](O)[C@@H]2O [estriol]	–	–	15	–
